{"source": "paper PMC4645114", "about": "“Discovery of Novel ROCK1 Inhibitors via Integrated Virtual Screening Strategy and Bioassays” (Scientific Reports, 2015)", "key": {"ROCK1": {"biological_target": "T1, ROCK1 (Homo sapiens, UniProt Q13464)", "T1 construct": "15 μl kinase reaction volume with 5 ng ROCK1 enzyme", "T1 sequence (Q13464 whole entry)": "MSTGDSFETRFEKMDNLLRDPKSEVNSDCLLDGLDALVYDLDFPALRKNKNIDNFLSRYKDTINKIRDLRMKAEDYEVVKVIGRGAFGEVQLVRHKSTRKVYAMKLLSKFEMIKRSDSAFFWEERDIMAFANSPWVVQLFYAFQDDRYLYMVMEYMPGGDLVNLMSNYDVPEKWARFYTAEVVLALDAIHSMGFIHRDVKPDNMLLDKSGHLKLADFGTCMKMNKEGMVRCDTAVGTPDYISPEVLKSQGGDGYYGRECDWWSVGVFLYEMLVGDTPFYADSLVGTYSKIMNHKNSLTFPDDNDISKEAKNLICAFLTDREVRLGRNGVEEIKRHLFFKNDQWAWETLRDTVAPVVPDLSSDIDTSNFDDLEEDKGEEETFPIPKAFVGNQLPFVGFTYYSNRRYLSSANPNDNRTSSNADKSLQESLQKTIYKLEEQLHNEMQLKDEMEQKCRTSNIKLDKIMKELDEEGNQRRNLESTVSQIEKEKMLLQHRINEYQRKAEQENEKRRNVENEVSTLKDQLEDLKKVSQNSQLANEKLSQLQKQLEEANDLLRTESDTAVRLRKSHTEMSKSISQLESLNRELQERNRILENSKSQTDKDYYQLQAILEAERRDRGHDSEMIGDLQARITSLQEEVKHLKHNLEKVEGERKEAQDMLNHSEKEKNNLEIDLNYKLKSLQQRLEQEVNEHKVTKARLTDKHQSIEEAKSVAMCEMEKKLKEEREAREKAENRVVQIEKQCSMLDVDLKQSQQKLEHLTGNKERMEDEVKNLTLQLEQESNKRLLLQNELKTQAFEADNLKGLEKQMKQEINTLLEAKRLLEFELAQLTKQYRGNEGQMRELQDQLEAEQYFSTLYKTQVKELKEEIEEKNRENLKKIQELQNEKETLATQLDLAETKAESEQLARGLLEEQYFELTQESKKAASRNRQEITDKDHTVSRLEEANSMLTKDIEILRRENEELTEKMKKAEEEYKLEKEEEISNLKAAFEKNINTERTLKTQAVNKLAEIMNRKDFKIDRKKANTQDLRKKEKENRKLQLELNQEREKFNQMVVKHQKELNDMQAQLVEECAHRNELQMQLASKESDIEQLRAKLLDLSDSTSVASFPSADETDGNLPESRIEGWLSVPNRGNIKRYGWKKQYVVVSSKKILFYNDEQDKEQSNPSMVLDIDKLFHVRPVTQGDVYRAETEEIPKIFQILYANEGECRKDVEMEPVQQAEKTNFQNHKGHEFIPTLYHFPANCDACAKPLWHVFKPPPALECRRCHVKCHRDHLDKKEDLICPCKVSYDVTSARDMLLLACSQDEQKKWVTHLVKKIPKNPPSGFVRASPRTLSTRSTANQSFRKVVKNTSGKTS", "experiment": "Z′-LYTE kinase assay, ROCK1 enzyme activity", "format": "biochemical", "procedure": "Kinase inhibition was measured by using the Z′-LYTE™ Kinase Assay Kit with Ser/Thr 7 peptide substrate (Invitrogen, cat. PV3180). Compounds were tested on three individual times with eight point dilutions performed in duplicate to determine the average IC50 values. The assay conditions were optimized to 15 μl kinase reaction volume with 5 ng ROCK1 enzyme in 50 mM HEPES (pH = 7.5), 10 mM MgCl2, 0.01% Brij-35 and 1 mM EGTA. Initially, the reaction was incubated for 1 hour at room temperature in the presence of 1.5 μM peptide substrate and 12.5 μM ATP for ROCK1. Then, 5 μL development reagent A was added and the assay plate was incubated for another 1 hour. Finally, […] stop reagent was added and the assay plate was shaken for 1 hour. The coumarin (ex. 400 nm, em. 445 nm) and fluorescein (ex. 400 nm, em. 520 nm) emission signals were measured on a fluorescence plate reader (Thermo Scientific Varioskan Flash)."}, "[1]": {"system": "phosphorylation of cofilin (ROCK pathway) in HUVEC", "experiment": "Western blotting of cofilin phosphorylation in HUVEC", "format": "cell-based, Human", "conditions": "compared with the control group", "procedure": "Human umbilical vein endothelial cells (HUVEC, ATCC, Manassas, USA) were cultured and maintained in the F-12 K medium with 2 mM L-glutamine, 1.5 g/L sodium bicarbonate, 100 μg/mL heparin, 30 μg/mL endothelial cell growth supplement and 10% fetal bovine serum (FBS) at 37 °C in a humidified atmosphere of 5% CO2. Cells were exposed to culture medium with 10% FBS for at least 1 day before experiments. Only 3–6 passages of cells were used in this study.\nHUVEC was pretreated with different targeted compounds (TS-15 and TS-40) for 1 hour. Y27632 and 0.2% DMSO were used as the positive control and vehicle control, respectively. After drug treatment, cells were washed with pre-cold PBS and lysed on ice with RIPA lysis buffer for 30 min, followed by centrifugation at 12,500 g for 20 min at 4 °C. The supernatant was collected and protein concentration was determined using the BCA protein assay kit (Thermo Scientific Pierce). Aliquots of protein samples were boiled for 5 min at 95 °C and electrophoresed on 10% SDS-PAGE and then transferred to a polyvinylidene difluoride membrane (Bio-Rad, Hercules, CA, USA). Subsequently, the membrane was blocked with 5% (w/v) nonfat milk in TBS-T buffer for 1 hour at room temperature. The blots were incubated overnight at 4 °C with primary antibodies. After being washed with TBS-T for 20 min at room temperature, the membranes were further incubated with horseradish peroxidase-conjugated secondary antibodies for 2 hours at room temperature. Finally, protein bands were visualized using ECL Plus Western blotting detection reagents (GE Healthcare, Piscataway, NJ, USA). The membranes were then scanned on a Bio-Rad ChemiDoc imaging system and the intensity of the protein bands was analyzed using the Bio-Rad Image Lab software."}, "zebrafish embryos": {"system": "zebrafish embryos", "experiment": "Atorvastatin-induced cerebral hemorrhage in zebrafish", "format": "in vivo", "parameters": "hemorrhage changes compared with the disease model group: dose or concentration left out as unconfirmed", "conditions": "for Cerebral hemorrhage rate (%): then atorvastatin 24 hours; for hemorrhage changes compared with the disease model group: atorvastatin 24 hours", "procedure": "Tg (fli1a:EGFP)y1; Tg (gata1a:dsRed)sd2 homozygous double transgenic zebrafish was used and maintained as described in our previous study. […] The animal experiments were carried out in “accordance” with the approved guidelines of the Animal Research Ethics Committee, University of Macau and approved by the Animal Research Ethics Committee, University of Macau.\nTg (fli1a:EGFP)y1; Tg (gata1a:dsRed)sd2 homozygous double transgenic zebrafish embryos at 22 hours post-fertilization (hpf) were pretreated with the targeted compounds (TS 15 and TS 40) for 2 hours. During this period, the positive control group was treated with […] Y27632 while the vehicle control group was given with 0.2% DMSO (solvent). Then, all the pretreated embryos washed with PBS for 3 times and challenged with 1 mM atorvastatin for 24 hours according to the reported protocol with small modifications. After that, the viability and cerebral hemorrhage changes were observed using a fluorescence microscope (Olympus IX81 Motorized Inverted Microscope, Japan) equipped with a digital camera (DP controller, Soft Imaging System, Olympus, Germany). The results were analyzed with Axiovision 4.2 (Soft Imaging System, Olympus, Germany) and the public-domain Image J software (Rasband WS, Image J; US National Institutes of Health, Bethesda, MD). The cerebral hemorrhage rate of each group was calculated by the number of zebrafish with cerebral hemorrhage to the total number of each group."}, "[2]": {"conditions": "ROCK1, 12.5 μM ATP, 8-point dilutions, three individual times"}}, "note": "Several values for one entry are separate records, joined by “and”; a condition that tells them apart may be missing. Equal entries are not always repeated.", "data": [{"smiles": "O=S(=O)(c1ccccc1)c1ccc(-c2ccnc3[nH]ccc23)cc1", "note": "[TS-f13]", "values": [{"measurement": "IC50", "setting": "ROCK1; [2]", "value": "3.2 ± 1.06", "unit": "µM"}]}, {"smiles": "COCCNc1cc(-c2ccc(C3(O)CCNCC3)cc2)c2cc[nH]c2n1", "note": "[TS-16]", "values": [{"measurement": "IC50", "setting": "ROCK1; [2]", "value": "9.94 ± 4.33", "unit": "µM"}]}, {"smiles": "C[C@@H](N)[C@H]1CC[C@H](C(=O)Nc2ccncc2)CC1", "note": "[Y27632, reference compound]", "values": [{"measurement": "phosphorylation level of cofilin (p-cofilin band, ratio to T-cofilin)", "setting": "[1]", "value": "reduced significantly"}, {"measurement": "Cerebral hemorrhage rate (%)", "setting": "zebrafish embryos; 10 μM pretreatment", "value": "74.4 ± 8.7", "unit": "%"}, {"measurement": "hemorrhage changes compared with the disease model group", "setting": "zebrafish embryos", "value": "obviously abated"}, {"measurement": "inhibitory rate against cerebral hemorrhage", "setting": "zebrafish embryos; dose of 10 μM", "value": 74.4, "unit": "%"}]}, {"smiles": "Cn1ncc2cc(-c3ccnc4[nH]ccc34)ccc21", "note": "[TS-f22]", "values": [{"measurement": "IC50", "setting": "ROCK1; [2]", "value": "< 1 µM and 0.48 µM"}]}, {"smiles": "CNc1cc(-c2ccccc2OCCn2ccnc2)c2cc[nH]c2n1", "note": "[TS-27]", "values": [{"measurement": "IC50", "setting": "ROCK1; [2]", "value": "26.5 ± 1.13", "unit": "µM"}]}, {"smiles": "Cc1nc(-c2cccc(-c3ccnc4[nH]ccc34)c2)no1", "note": "[TS-f26]", "values": [{"measurement": "IC50", "setting": "ROCK1; [2]", "value": "3.48 ± 1.65", "unit": "µM"}]}, {"smiles": "OCCCNCc1cccc(-c2ccnc3[nH]ccc23)c1", "note": "[TS-f5]", "values": [{"measurement": "IC50", "setting": "ROCK1; [2]", "value": "1.55 ± 0.57", "unit": "µM"}]}, {"smiles": "CCCCNC(=O)c1ccc(-c2ccnc3[nH]ccc23)o1", "note": "[TS-f32]", "values": [{"measurement": "IC50", "setting": "ROCK1; [2]", "value": "2.21 ± 0.21", "unit": "µM"}]}, {"smiles": "OC(CN1CCOCC1)c1ccc(-c2ccnc3[nH]ccc23)cc1", "note": "(stereo not shown) [TS-15]", "values": [{"measurement": "phosphorylation level of cofilin (p-cofilin band, ratio to T-cofilin)", "setting": "[1]", "value": "significant inhibitory effects"}, {"measurement": "IC50", "setting": "ROCK1; [2]", "value": "< 1 µM and 0.25 µM"}, {"measurement": "IC50", "setting": "ROCK1; ROCK1, value given in text", "value": "< 0.3", "unit": "µM"}, {"measurement": "Cerebral hemorrhage rate (%)", "setting": "zebrafish embryos; 6 μM pretreatment", "value": "79.3 ± 5.9", "unit": "%"}, {"measurement": "Cerebral hemorrhage rate (%)", "setting": "zebrafish embryos; 20 μM pretreatment", "value": "73.5 ± 13.0", "unit": "%"}, {"measurement": "Cerebral hemorrhage rate (%)", "setting": "zebrafish embryos; 60 μM pretreatment", "value": "<60 ^b,* %"}, {"measurement": "hemorrhage changes compared with the disease model group", "setting": "zebrafish embryos", "value": "obviously abated"}, {"measurement": "inhibitory rate against cerebral hemorrhage", "setting": "zebrafish embryos; dose of 6 μM", "value": 79.3, "unit": "%"}, {"measurement": "inhibitory rate against cerebral hemorrhage", "setting": "zebrafish embryos; dose of 20 μM", "value": 73.5, "unit": "%"}, {"measurement": "toxicity to zebrafish", "setting": "zebrafish embryos; dose of 20 μM", "value": "relatively safe"}, {"measurement": "inhibitory rate against cerebral hemorrhage", "setting": "zebrafish embryos; dose of 60 μM", "value": "< 60", "unit": "%"}, {"measurement": "toxicity to zebrafish", "setting": "zebrafish embryos; dose of 60 μM", "value": "toxic"}]}, {"smiles": "Nc1cc(-c2ccc(C3(O)CCNCC3)cc2)c2cc[nH]c2n1", "note": "[TS-28]", "values": [{"measurement": "IC50", "setting": "ROCK1; [2]", "value": "6.71 ± 1.48", "unit": "µM"}]}, {"smiles": "NS(=O)(=O)c1ccc(-c2ccnc3[nH]ccc23)c(F)c1", "note": "[TS-40]", "values": [{"measurement": "phosphorylation level of cofilin (p-cofilin band, ratio to T-cofilin)", "setting": "[1]", "value": "significant inhibitory effects"}, {"measurement": "IC50", "setting": "ROCK1; [2]", "value": "< 1 µM and 0.15 µM"}, {"measurement": "IC50", "setting": "ROCK1; ROCK1, value given in text", "value": "< 0.3", "unit": "µM"}, {"measurement": "Cerebral hemorrhage rate (%)", "setting": "zebrafish embryos; 6 μM pretreatment", "value": "90.6 ± 7.4", "unit": "%"}, {"measurement": "Cerebral hemorrhage rate (%)", "setting": "zebrafish embryos; 20 μM pretreatment", "value": "78.8 ± 7.1", "unit": "%"}, {"measurement": "Cerebral hemorrhage rate (%)", "setting": "zebrafish embryos; 60 μM pretreatment", "value": "66.2 ± 7.2", "unit": "%"}, {"measurement": "hemorrhage changes compared with the disease model group", "setting": "zebrafish embryos", "value": "obviously abated"}, {"measurement": "inhibitory rate against cerebral hemorrhage", "setting": "zebrafish embryos; dose of 20 μM", "value": 78.8, "unit": "%"}, {"measurement": "inhibitory rate against cerebral hemorrhage", "setting": "zebrafish embryos; dose of 60 μM", "value": 66.2, "unit": "%"}]}, {"smiles": "CN(Cc1cc(F)ccc1O)Cc1cccc2cnccc12", "note": "[TS-f28]", "values": [{"measurement": "IC50", "setting": "ROCK1; [2]", "value": "23.05 ± 0.07", "unit": "µM"}]}, {"smiles": "NCC1CCN(Cc2ccc(-c3nc(-c4ccncc4)cc(=O)[nH]3)cc2)CC1", "note": "[TS-f7]", "values": [{"measurement": "IC50", "setting": "ROCK1; [2]", "value": "28.3 ± 0.99", "unit": "µM"}]}, {"smiles": "COCc1nc2cc(-c3ccnc4[nH]ccc34)ccc2o1", "note": "[TS-f25]", "values": [{"measurement": "IC50", "setting": "ROCK1; [2]", "value": "4.42 ± 1.14", "unit": "µM"}]}, {"smiles": "O=c1[nH]c2ccc(-c3cc(NC4CCCC4)nc4[nH]ccc34)cc2[nH]c1=O", "note": "[TS-11]", "values": [{"measurement": "IC50", "setting": "ROCK1; [2]", "value": "67.2 ± 0.57", "unit": "µM"}]}, {"smiles": "c1cc(OCCn2ccnc2)cc(-c2ccnc3[nH]ccc23)c1", "note": "[TS-f37]", "values": [{"measurement": "IC50", "setting": "ROCK1; [2]", "value": "1.82 ± 0.76", "unit": "µM"}]}, {"smiles": "CN(Cc1cccc(C(=O)Nc2ccc3[nH]ncc3c2)c1)Cc1cc[nH]n1", "note": "[TS-f6]", "values": [{"measurement": "IC50", "setting": "ROCK1; [2]", "value": "12.4 ± 0.85", "unit": "µM"}]}, {"smiles": "O=C(NCCc1c[nH]cn1)c1coc(COc2cccc3cnccc23)n1", "note": "[TS-f10]", "values": [{"measurement": "IC50", "setting": "ROCK1; [2]", "value": "31.4 ± 1.63", "unit": "µM"}]}]}
